Measurements taken from patent publication US4966907A, “6-substituted 5-hydroxy-2,3-dihydrobenzofurans as inhibitors of leukotriene biosynthesis” (Merck & Co., Inc., priority 1988, dated 1990).

System: LTB4 production in isolated human polymorphonuclear leucocytes (PMN)
Assay: inhibition of LTB4 production in isolated human polymorphonuclear leukocytes (PMN), A23187-stimulated, radioimmunoassay
Format: cell-based
Conditions: Homo sapiens, Leucocyte, 5 min; calcium ionophore A23187 10 μM, 5 min at 37° C., 2.5×10^5 cells; read-out: Human Polymorphonuclear Leucocyte Activity IC50
Text: A. Preparation of Human PMN
Human blood is obtained by antecubital venepuncture from consenting volunteers who denied having taken medication within the previous 7 days. The blood is immediately added to 10% (v/v) trisodium citrate (0.13M) or 5% (v/v) sodium heparin (1000 IU/mL). PMNs are isolated from anticoagulated blood by dextran sedimentation and centrifugation through Ficoll Hypaque (specific gravity 1.077), essentially as described by Boyum. (Boyum, A., Scand. J. Clin. Lab. Invest 1968, 21 (Supp 97), 77). Contaminating erythrocytes are removed by lysis following exposure to ammonium chloride (0.16M) in Tris buffer (pH 7.65), and the PMNs resuspended at 5×10^5 cells/mL in HEPES (15 mM) buffered Hanks balanced salt solution containing Ca^2+ (1.4 mM) and Mg^2+ (0.7 mM), pH 7.4. Viability is assessed by Trypan blue exclusion and is typically greater than 98%.
B. Generation and Radiommumoassay of LTB4
PMNs 0.5 mL; 2.5×10^5 cells) are placed in plastic tubes and incubated (37° C., 2 min) with test compounds at the desired concentration or vehicle control (DMSO, final concentration 0.2%). The synthesis of leukotriene B4 (LTB4) is initiated by the addition of calcium ionophore A23187 (final concentration 10 μM) or vehicle on control samples and allowed to proceed for 5 minutes at 37° C. The reactions are then terminated by the addition of cold methanol (0.25 mL) and samples of the entire PMN reaction mixture are removed for radiommunoassay of LTB4.
Samples (50 μl) of authentic LTB4 of known concentration in radiommunoassay buffer (RIA) buffer (potassium phosphate 1 mM; disodium EDTA 0.1 mM; Thimerosal 0.025 mM; gelatin 0.1%, pH 7.3) or PMN reaction mixture diluted 1:1 with RIA buffer are added to reaction tubes.
Thereafter [3H]LTB4 (10 nCu in 100 μl RIA buffer) and LTB4 antiserum (100 μL of a 1:3000 dilution in RIA buffer) are added and the tubes vortexed. Reactants are allowed to equilibrate by incubation overnight at 4° C. To separate antibody bound from free LTB4, aliquots (50 μL) of activated charcoal (3% activated charcoal in RIA buffer containing 0.25% Dextran T-70) were added, the tubes vortexed, and allowed to stand at room temperature for 10 minutes prior to centrifugation (1500×g; 10 min; 4° C.). The supernatents containing antibody-bound LTB4 are decanted into vials and Aquasol 2 (4 mL) is added. Radioactivity is quantified by liquid scintillation spectrometry. […] The specificity of the antiserium and the sensitivity of the procedure have been described in detail elsewhere. (Rokach, J.; Hayes, E. C.; Girard, Y.; Lombardo. D. L.; Maycock, A. L.; Rosenthal, A. S.; Young, R. N.; Zamboni, R.; Zweerink, H. J. Prostaglandins Leukotrienes and Medicine 1984, 13, 21). The amount of LTB4 produced in test and control (approx. 20 ng/10^6 cells) samples are then calculated. Inhibitory dose response curves are constructed using a four-parameter algorithm and from these the IC50 values are determined.

| Structure (SMILES) | IC50 [nM] |
| --- | --- |
| CCCc1cc2c(c(Br)c1O)CCO2 [Br CH2 CH3 CH3, 2,3-dihydro4-bromo-6-propyl-5-benzofuranol] | 49 |
| Cc1c(O)c(CCCSc2ccccc2)cc2c1CCO2 [CH3 (CH2)3 SC6 H5, 2,3-dihydro-4-methyl-6-(3-(phenylthio)propyl)5-benzofuranol] | 19 |
| CCCc1ccc(OCCCc2cc3c(cc2O)CCO3)cc1 [H (CH2)3 OC6 H4-4-(CH2)2 CH3, 2,3-dihydro 6-(3-(4-propylphenoxy)propyl)-5-benzofuranol] | 9 |
| OCCc1ccc(OCCCc2cc3c(cc2O)CCO3)cc1 [H (CH2)3 OC6 H4-4-(CH2)2 OH, 2,3-dihydro-6-(3-(4-(2-hydroxyethyl)phenoxy)propyl)-5-benzofuranol] | 41 |
| COC(=O)Cc1ccc(OCCCOc2cc3c(cc2O)CCO3)cc1 [H O(CH2)3 OC6 H5-4-CH2 CO2 CH3, 4-(3-((2,3-dihydro-5-hydroxy-6-benzofuranyl)oxy)propoxy)benzeneacetic acid methyl ester] | 72 |
| COC(=O)c1ccc(OCCCOc2cc3c(cc2O)CCO3)cc1 [H O(CH2)3 OC6 H5-4-CO2 CH3, 4-(3-((2,3-dihydro-5-hydroxy-6-benzofuranyl)oxy)propoxy)benzoic acid methyl ester] | 71 |

Continued, values first:

| IC50 [nM] | Structure (SMILES) |
| --- | --- |
| 77 | OCCc1cccc(OCCCc2cc3c(cc2O)CCO3)c1 [H (CH2)3 OC6 H4-3-(CH2)2 OH, 2,3-Dihydro-6-(3-(3-(2-hydroxyethyl)-phenoxy)propyl)-5-benzofuranol] |
| 55 | Oc1cc2c(cc1CCCOc1ccc(Cl)cc1)OCC2 [H (CH2)3 OC6 H4-4-Cl, 2,3-Dihydro-6-(3-(4-chlorophenoxy)propyl)-5-benzofuranol] |
| 28 | Oc1cc2c(cc1CCCOc1ccc(F)cc1)OCC2 [H (CH2)3 OC6 H4-4-F, 2,3-dihydro-6-(3-(4-fluorophenoxy)propyl)5-benzofuranol] |
| 57 | Oc1cc2c(cc1CCCOc1ccccc1)OCC2 [H (CH2)3 OC6 H5, 2,3-dihydro-6-(3-phenoxypropyl)-5-benzofuranol] |
| 19 | Oc1cc2c(cc1CCCSc1ccccc1)OCC2 [H (CH2)3 SC6 H5, 2,3-dihydro-6-(3-(phenylthio)propyl)-5-benzofuranol] |
| 51 | Oc1cc2c(cc1OCCCc1ccccc1)OCC2 [H O(CH2)3 C6 H5, 2,3-dihydro-6-(3-phenylpropoxy)-5-benzofuranol] |
| 65 | COC(=O)c1ccccc1OCCCOc1cc2c(cc1O)CCO2 [H O(CH2)3 OC6 H5-2-CO2 CH3, 2-(3-((2,3-dihydro-5-hydroxy-6-benzofuranyl)oxy)propoxy)benzoic acid methyl ester] |
| 56 | COC(=O)c1cccc(OCCCOc2cc3c(cc2O)CCO3)c1 [H O(CH2)3 OC6 H5-3-CO2 CH3, 3-(3-((2,3-dihydro-5-hydroxy-6-benzofuranyl)oxy)propoxy)benzoic acid methyl ester] |
| 66 | Oc1cc2c(cc1SCCc1ccccc1)OCC2 [H S(CH2)2 C6 H5, 2,3-dihydro 6 (2 phenylethyl)thio-5-benzofuranol] |
| 28 | Oc1cc2c(cc1SCCCc1ccccc1)OCC2 [H S(CH2)3 C6 H5, 2,3-dihydro-6-(3-phenylpropyl)thio-5-benzofuranol] |

Same assay, conditions: Leucocyte, 5 min; standard compounds; human PMN, A23187 10 μM, 5 min at 37° C.; read-out: IC50 values for LTB4 inhibition

| IC50 [nM] | Structure (SMILES) |
| --- | --- |
| 86 | CC(Cc1ccc(O)c(O)c1)C(C)Cc1ccc(O)c(O)c1 (centres unmarked) [nordihydroguaiacetic acid, reference compound] |
| 9250 | O=C1CCN(c2ccccc2)N1 [phenidone, reference compound] |

System: leukotriene biosynthesis in human polymorphonuclear leukocytes
Assay: not given
Conditions: known inhibitors of leukotriene biosynthesis; cited from earlier work

| Structure (SMILES) | activity in the human polymorphonuclear leukocytes assay |
| --- | --- |
| CC(Cc1ccc(O)c(O)c1)C(C)Cc1ccc(O)c(O)c1 (centres unmarked) [nordihydroguaiacetic acid, reference compound] | active |
| O=C1CCN(c2ccccc2)N1 [phenidone, reference compound] | active |
